This passage reports remaining activity results from PMC5564600 (Oncotarget, 2017).

Common to all, as to assay: biochemical
What all share (type): binding

In test [1] the target is T1, panel of 442 kinases (Homo sapiens, UniProt P45984).
T1 construct: purchased Ambit Biosciences (scanMAXX KINOMEscan)
Conditions: kinase JNK2; for remaining activity at 1 µM: read-out: % of control at 1 µM.

Test [2] addresses T2, panel of 442 kinases (Homo sapiens, UniProt P53350).
T2 construct: purchased Ambit Biosciences (scanMAXX KINOMEscan)
Conditions: kinase PLK1; for remaining activity at 1 µM: read-out: PLK1 (% of control at 1 µM).

The target of test [3] is T3, panel of 442 kinases (Homo sapiens, UniProt Q2M2I8).
T3 construct: purchased Ambit Biosciences (scanMAXX KINOMEscan)
Conditions: AAK1; for remaining activity at 1 µM: read-out: % of control at 1 µM.

Test [4] addresses T4, panel of 442 kinases (Homo sapiens, UniProt Q9HCP0).
T4 construct: purchased Ambit Biosciences (scanMAXX KINOMEscan)
Conditions: CSNK1G1; for remaining activity at 1 µM: read-out: % of control at 1 µM.

Test [5] addresses T5, panel of 442 kinases (Homo sapiens, UniProt Q15831).
T5 construct: purchased Ambit Biosciences (scanMAXX KINOMEscan)
T5 sequence (Q15831 1-433): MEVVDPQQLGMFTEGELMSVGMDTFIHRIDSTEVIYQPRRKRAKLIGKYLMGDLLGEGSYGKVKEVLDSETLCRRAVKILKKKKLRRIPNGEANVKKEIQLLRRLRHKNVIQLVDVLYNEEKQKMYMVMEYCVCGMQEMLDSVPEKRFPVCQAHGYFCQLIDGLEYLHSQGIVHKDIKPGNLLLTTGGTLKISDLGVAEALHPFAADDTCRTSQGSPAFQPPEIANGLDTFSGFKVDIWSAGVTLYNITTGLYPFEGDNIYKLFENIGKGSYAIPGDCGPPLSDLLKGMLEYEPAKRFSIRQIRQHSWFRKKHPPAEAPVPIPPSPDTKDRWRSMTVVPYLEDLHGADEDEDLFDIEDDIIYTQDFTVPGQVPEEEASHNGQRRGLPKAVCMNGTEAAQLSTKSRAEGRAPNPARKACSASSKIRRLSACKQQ
Conditions: kinase LKB1; for remaining activity at 1 µM: read-out: % of control at 1 µM.

In test [6] the target is T6, panel of 442 kinases (Homo sapiens, UniProt Q9NWZ3).
T6 construct: purchased Ambit Biosciences (scanMAXX KINOMEscan)
T6 sequence (Q9NWZ3 1-460): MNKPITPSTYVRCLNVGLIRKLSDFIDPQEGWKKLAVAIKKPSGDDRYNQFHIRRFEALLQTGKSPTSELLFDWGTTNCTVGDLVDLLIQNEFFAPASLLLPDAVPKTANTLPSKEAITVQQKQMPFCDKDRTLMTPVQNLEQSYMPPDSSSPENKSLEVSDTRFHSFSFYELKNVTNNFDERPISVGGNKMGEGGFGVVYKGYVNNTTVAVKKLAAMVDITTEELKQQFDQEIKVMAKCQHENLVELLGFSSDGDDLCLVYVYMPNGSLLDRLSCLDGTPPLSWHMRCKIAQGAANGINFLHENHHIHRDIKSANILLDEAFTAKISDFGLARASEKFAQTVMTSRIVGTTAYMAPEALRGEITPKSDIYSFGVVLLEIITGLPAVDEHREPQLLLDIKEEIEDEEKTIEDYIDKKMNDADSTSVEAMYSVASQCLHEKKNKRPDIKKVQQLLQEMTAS
Conditions: kinase IRAK4; for remaining activity at 1 µM: read-out: % of control at 1 µM.

For test [7], the target named is T7, panel of 442 kinases (Homo sapiens, UniProt P36888).
T7 construct: purchased Ambit Biosciences (scanMAXX KINOMEscan)
T7 sequence (P36888 27-993): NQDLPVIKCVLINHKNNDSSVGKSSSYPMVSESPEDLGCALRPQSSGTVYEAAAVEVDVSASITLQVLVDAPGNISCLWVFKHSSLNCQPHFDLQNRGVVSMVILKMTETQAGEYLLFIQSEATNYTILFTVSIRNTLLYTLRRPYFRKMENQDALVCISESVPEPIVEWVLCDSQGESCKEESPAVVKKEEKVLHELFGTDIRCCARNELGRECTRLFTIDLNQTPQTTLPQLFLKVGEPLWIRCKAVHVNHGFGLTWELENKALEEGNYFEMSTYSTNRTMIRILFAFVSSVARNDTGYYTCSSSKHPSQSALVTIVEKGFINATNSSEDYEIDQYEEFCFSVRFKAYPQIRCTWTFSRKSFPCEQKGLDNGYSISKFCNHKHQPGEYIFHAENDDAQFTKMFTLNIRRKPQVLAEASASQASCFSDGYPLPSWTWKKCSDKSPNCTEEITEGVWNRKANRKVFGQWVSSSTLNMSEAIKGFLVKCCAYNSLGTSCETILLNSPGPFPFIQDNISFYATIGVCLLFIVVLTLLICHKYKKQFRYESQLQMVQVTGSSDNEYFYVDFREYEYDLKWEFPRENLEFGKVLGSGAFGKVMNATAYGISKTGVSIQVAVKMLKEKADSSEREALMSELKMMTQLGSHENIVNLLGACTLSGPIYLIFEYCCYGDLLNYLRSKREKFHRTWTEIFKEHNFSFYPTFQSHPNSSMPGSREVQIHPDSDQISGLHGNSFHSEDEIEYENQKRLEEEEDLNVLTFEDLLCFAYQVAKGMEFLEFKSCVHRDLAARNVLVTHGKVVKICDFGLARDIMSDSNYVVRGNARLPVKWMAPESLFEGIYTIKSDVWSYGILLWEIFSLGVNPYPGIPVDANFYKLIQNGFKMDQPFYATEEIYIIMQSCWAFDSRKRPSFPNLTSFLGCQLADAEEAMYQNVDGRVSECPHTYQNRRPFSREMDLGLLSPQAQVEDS
Conditions: FLT3; for remaining activity at 1 µM: read-out: % of control at 1 µM.

Test [8] deals with T8, panel of 442 kinases (Homo sapiens, UniProt Q5S007).
T8 construct: purchased Ambit Biosciences (scanMAXX KINOMEscan)
T8 sequence (Q5S007 whole entry): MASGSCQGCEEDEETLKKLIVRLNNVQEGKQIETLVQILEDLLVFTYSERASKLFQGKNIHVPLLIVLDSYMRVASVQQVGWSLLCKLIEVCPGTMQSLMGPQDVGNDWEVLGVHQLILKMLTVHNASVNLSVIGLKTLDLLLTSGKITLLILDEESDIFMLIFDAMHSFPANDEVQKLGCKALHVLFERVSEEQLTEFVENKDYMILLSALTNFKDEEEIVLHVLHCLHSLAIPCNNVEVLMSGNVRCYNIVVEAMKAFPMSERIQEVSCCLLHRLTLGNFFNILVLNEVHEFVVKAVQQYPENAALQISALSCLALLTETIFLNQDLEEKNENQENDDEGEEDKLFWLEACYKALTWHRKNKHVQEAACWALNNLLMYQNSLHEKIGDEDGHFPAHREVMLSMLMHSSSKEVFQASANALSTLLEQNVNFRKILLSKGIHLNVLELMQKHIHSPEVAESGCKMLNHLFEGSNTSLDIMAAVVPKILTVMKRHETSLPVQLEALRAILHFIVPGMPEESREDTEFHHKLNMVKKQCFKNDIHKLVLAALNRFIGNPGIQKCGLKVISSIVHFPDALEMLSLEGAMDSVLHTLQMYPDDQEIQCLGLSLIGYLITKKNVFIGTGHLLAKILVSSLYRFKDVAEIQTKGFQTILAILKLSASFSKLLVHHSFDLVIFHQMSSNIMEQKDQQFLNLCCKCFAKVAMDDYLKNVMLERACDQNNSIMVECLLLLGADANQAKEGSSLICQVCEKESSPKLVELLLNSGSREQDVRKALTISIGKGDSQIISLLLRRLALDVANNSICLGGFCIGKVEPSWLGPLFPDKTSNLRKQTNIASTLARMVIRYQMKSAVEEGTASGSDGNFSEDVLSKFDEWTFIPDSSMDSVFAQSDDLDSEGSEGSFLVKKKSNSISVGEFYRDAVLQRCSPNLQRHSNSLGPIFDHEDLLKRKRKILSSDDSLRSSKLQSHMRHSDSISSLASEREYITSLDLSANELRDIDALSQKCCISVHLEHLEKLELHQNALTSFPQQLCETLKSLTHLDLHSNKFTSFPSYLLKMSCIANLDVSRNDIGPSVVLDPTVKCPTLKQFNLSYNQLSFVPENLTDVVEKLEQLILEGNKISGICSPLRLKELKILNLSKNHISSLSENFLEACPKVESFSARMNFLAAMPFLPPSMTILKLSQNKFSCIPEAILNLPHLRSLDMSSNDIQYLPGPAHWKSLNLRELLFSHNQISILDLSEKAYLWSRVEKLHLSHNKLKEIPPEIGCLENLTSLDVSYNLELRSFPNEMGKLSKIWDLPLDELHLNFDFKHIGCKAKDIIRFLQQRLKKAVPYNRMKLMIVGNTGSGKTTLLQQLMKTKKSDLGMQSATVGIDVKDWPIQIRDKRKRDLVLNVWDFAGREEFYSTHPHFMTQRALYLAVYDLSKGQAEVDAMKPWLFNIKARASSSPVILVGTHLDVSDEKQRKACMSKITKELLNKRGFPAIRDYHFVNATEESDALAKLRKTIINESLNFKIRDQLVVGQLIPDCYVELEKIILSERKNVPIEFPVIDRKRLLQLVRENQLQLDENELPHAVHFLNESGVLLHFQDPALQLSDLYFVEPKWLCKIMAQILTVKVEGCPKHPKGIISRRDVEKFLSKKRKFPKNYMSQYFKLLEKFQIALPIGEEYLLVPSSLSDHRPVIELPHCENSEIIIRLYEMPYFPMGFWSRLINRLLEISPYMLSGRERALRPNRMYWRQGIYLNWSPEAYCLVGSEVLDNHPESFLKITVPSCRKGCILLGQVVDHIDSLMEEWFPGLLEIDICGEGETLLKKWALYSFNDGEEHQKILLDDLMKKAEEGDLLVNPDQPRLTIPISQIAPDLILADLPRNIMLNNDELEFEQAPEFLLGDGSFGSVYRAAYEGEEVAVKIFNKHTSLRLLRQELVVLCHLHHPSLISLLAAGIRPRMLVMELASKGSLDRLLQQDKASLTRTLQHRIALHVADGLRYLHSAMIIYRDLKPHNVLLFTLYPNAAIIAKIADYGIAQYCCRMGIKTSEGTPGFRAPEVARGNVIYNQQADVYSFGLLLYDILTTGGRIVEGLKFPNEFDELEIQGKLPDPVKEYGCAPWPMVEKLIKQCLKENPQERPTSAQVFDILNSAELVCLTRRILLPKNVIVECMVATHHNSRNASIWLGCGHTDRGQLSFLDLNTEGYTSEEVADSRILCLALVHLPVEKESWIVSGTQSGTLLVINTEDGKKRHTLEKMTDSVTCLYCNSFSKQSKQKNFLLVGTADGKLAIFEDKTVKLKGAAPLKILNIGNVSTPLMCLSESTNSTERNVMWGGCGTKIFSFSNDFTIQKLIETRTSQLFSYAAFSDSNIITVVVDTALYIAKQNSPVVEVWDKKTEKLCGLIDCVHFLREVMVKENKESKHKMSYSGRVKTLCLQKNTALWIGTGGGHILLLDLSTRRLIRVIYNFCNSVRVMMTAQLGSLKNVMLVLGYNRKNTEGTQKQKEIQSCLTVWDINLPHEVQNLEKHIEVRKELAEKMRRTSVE
Conditions: kinase LRRK2; for remaining activity at 1 µM: read-out: % of control at 1 µM.

In test [9] the target is T9, panel of 442 kinases (Homo sapiens, UniProt P31751).
T9 construct: purchased Ambit Biosciences (scanMAXX KINOMEscan)
T9 sequence (P31751 whole entry): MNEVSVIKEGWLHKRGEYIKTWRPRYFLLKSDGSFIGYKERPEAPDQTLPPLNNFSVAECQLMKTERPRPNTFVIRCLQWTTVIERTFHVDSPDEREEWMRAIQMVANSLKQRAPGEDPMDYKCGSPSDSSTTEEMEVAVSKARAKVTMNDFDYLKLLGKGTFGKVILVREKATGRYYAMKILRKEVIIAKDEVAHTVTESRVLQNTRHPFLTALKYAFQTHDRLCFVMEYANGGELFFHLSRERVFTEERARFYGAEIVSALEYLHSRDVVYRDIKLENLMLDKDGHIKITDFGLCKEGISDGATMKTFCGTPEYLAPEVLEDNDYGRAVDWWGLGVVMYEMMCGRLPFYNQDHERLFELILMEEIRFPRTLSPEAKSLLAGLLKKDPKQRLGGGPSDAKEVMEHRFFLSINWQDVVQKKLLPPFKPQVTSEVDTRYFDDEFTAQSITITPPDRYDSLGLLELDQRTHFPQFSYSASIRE
Conditions: AKT2; for remaining activity at 1 µM: read-out: % of control at 1 µM.

For test [10], the target named is T10, panel of 442 kinases (Homo sapiens, UniProt P00533, G719S).
T10 construct: purchased Ambit Biosciences (scanMAXX KINOMEscan)
Conditions: EGFR(G719S); for remaining activity at 1 µM: read-out: % of control at 1 µM.

Test [11] has as its target T11, panel of 442 kinases (Homo sapiens, UniProt P30291).
T11 construct: purchased Ambit Biosciences (scanMAXX KINOMEscan)
Conditions: kinase WEE1; for remaining activity at 1 µM: read-out: WEE1 (% of control at 1 µM).

Test [12] has as its target T12, panel of 442 kinases (Homo sapiens, UniProt P07947).
T12 construct: purchased Ambit Biosciences (scanMAXX KINOMEscan)
Conditions: kinase YES; for remaining activity at 1 µM: read-out: YES (% of control at 1 µM).

The mark [13] stands for this setting: 10 µM, read-out: % of control at 10 µM.

T4 sequence (Q9HCP0 whole entry): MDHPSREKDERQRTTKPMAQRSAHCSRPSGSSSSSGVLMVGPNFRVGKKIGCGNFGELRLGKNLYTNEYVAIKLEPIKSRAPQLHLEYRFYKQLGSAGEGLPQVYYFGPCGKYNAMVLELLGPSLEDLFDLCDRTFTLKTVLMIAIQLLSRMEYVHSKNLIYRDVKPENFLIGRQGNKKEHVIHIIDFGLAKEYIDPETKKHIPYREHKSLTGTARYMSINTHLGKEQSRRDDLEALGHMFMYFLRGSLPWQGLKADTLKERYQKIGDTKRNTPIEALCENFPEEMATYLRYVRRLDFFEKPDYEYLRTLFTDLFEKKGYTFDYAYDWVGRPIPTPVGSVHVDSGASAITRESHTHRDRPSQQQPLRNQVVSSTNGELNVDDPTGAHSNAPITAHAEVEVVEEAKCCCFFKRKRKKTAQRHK
T2 sequence (P53350 whole entry): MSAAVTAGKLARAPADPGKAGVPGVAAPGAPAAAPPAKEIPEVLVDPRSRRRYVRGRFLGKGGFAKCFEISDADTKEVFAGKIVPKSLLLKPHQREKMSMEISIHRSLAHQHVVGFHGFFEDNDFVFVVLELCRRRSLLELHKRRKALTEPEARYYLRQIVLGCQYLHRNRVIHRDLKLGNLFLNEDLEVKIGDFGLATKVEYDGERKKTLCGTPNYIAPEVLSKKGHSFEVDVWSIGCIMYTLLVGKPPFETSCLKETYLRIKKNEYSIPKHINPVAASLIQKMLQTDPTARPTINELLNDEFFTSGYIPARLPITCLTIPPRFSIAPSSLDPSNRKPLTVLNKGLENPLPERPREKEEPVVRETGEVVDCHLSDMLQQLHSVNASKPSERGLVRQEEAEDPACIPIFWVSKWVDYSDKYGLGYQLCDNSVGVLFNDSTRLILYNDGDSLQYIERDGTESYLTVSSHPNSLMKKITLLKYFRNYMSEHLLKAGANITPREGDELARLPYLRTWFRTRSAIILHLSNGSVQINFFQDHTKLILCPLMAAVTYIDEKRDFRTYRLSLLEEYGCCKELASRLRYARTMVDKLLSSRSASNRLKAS
T1 sequence (P45984 whole entry): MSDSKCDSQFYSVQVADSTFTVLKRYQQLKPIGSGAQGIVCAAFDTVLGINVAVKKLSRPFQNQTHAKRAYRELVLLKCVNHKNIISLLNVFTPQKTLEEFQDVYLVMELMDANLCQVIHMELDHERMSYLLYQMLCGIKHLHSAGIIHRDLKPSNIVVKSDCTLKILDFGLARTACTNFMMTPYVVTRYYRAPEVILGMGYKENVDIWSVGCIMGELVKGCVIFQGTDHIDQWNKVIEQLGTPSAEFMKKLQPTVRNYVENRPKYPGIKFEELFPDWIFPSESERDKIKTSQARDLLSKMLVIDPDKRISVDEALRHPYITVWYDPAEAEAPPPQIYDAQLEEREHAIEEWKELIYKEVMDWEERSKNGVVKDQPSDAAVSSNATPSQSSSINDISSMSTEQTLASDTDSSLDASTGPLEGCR
T12 sequence (P07947 whole entry): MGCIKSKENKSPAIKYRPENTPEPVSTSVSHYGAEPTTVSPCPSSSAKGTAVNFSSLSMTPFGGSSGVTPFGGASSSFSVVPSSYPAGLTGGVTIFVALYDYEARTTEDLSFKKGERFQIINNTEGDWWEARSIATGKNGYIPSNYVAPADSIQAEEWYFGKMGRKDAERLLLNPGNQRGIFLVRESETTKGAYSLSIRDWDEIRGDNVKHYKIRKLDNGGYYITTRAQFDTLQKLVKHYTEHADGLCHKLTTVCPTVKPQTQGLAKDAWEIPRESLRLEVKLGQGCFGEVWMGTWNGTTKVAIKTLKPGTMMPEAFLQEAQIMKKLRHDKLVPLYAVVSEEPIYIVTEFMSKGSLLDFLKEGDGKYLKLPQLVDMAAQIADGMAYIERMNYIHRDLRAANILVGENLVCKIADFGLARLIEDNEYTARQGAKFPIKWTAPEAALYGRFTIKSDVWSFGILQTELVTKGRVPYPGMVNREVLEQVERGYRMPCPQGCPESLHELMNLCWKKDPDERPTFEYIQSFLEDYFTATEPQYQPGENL

As to `Nc1cc(C(F)(F)F)c(-c2cc(N3CCOCC3)nc(N3CCOCC3)n2)cn1` [Buparlisib], the remaining activity at 1 µM at panel of 442 kinases [1] is 100%; on panel of 442 kinases [2] it was 65%; at panel of 442 kinases [3], 97%; at panel of 442 kinases [4] it was 95%; on panel of 442 kinases [5], 100%; on panel of 442 kinases [6], 62%. Moreover, the remaining activity at 1 µM on panel of 442 kinases [7] was 90%; on panel of 442 kinases [8], 80%; at panel of 442 kinases [9], 100%; at panel of 442 kinases [10], 100%; at panel of 442 kinases [11], 100%; on panel of 442 kinases [12] it was 100%. Besides, the remaining activity at 10 µM came to 100% on panel of 442 kinases [1] (setting [13]); 84% at panel of 442 kinases [2] (10 µM, read-out: PLK1 (% of control at 10 µM)); 100% on panel of 442 kinases [3] (setting [13]); 95% at panel of 442 kinases [4] (setting [13]); 99% at panel of 442 kinases [5] (setting [13]); 67% on panel of 442 kinases [6] (setting [13]). Besides, the remaining activity at 10 µM on panel of 442 kinases [7] (setting [13]) was 81%; on panel of 442 kinases [8] (setting [13]) it was 100%; on panel of 442 kinases [9] (setting [13]) it was 100%; at panel of 442 kinases [10] (setting [13]) it was 95%; on panel of 442 kinases [11] (10 µM, read-out: WEE1 (% of control at 10 µM)), 100%; on panel of 442 kinases [12] (10 µM, read-out: YES (% of control at 10 µM)), 100%.

Take `Cn1c(=O)n(-c2ccc(C(C)(C)C#N)cc2)c2c3cc(-c4cnc5ccccc5c4)ccc3ncc21` [Dactolisib, 2-methyl-2-[4-(3-methyl-2-oxo-8-quinolin-3-yl-2,3-dihydroimidazo[4,5-c]quinolin-1-yl)-phenyl] propionitrile]: the remaining activity at 1 µM on panel of 442 kinases [1] was 100%; at panel of 442 kinases [2] it was 93%; on panel of 442 kinases [3], 84%; at panel of 442 kinases [4], 67%; at panel of 442 kinases [5], 93%; on panel of 442 kinases [6], 68%. Also, the remaining activity at 1 µM came out at 67% on panel of 442 kinases [7]; 52% on panel of 442 kinases [8]; 78% on panel of 442 kinases [9]; 99% on panel of 442 kinases [10]; 100% on panel of 442 kinases [11]; 100% at panel of 442 kinases [12].

Turning to `COc1ncc(-c2ccc3nccc(-c4ccnnc4)c3c2)cc1NS(=O)(=O)c1ccc(F)cc1F` [Omipalisib], the remaining activity at 1 µM on panel of 442 kinases [1] is 100%; at panel of 442 kinases [2], 97%; at panel of 442 kinases [3], 66%; at panel of 442 kinases [4], 100%; on panel of 442 kinases [5], 100%; at panel of 442 kinases [6], 88%. In addition, the remaining activity at 1 µM came to 100% on panel of 442 kinases [7]; 96% on panel of 442 kinases [8]; 69% on panel of 442 kinases [9]; 78% at panel of 442 kinases [10]; 100% on panel of 442 kinases [11]; 100% on panel of 442 kinases [12].

As for `FC(F)c1nc2ccccc2n1-c1nc(N2CCOCC2)nc(N2CCOCC2)n1` [ZSTK474, 2-(difluoromethyl)-1-[4,6-di(4-morpholinyl)-1,3,5-triazin-2-yl]-1H-benzimidazole], the remaining activity at 1 µM on panel of 442 kinases [1] came to 100%; on panel of 442 kinases [2], 62%; at panel of 442 kinases [3], 100%; at panel of 442 kinases [4] it was 81%; at panel of 442 kinases [5], 100%; on panel of 442 kinases [6], 100%. Further, the remaining activity at 1 µM at panel of 442 kinases [7] was found to be 100%; at panel of 442 kinases [8], 100%; at panel of 442 kinases [9] it was 80%; on panel of 442 kinases [10], 100%; on panel of 442 kinases [11], 100%; on panel of 442 kinases [12] it was 100%.
